Source: publication PMC7695847, “The structural basis of promiscuity in small multidrug resistance transporters” (Nature Communications, 2020)

Experiments:
[1] = tested on: T1, Gdx-Clo; assay: […]-Gdm+ uptake and SSM electrophysiology, proteoliposomes; assay type: biochemical, Clostridiales bacterium oral taxon 876; settings: 20 µM 14C-Gdm+ or 1 mM (SSM); pH 7.5; labelled compound
T1 construct: gene HMPREF1982_00479; full-length; C-terminal His6 tag with LysC site, tag cleaved by LysC; expressed in E. coli C41(DE3); antiparallel homodimer

[2] = molecular target: T2, EmrE (Escherichia coli, UniProt P23895); assay: […]-methyl viologen uptake into proteoliposomes; assay type: biochemical; settings: 7 µM 14C-methyl viologen; pH 7.5; labelled compound
T2 construct: full-length; N-terminal His6 tag with thrombin site; expressed in E. coli; homodimer; reconstituted in proteoliposomes

[3] = molecular target: T2, EmrE; assay: SSM electrophysiology, proteoliposomes; assay type: biochemical; settings: 1 mM; pH 7.5; reference compound for normalisation

T2 sequence (P23895 whole entry): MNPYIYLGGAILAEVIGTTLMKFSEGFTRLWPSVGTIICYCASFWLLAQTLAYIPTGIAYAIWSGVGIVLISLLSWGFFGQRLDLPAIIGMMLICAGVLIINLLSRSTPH
T1 sequence (U2EQ00 entry or part of it): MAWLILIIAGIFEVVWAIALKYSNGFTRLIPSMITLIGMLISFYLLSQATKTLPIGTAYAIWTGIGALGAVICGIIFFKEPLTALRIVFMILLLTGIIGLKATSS

N=C(N)N [Gdm^+]
14C-Gdm+ uptake and SSM electrophysiology, proteoliposomes [1]: Gdx-Clo transports Gdm^+, but not methyl viologen

C[n+]1ccc(-c2cc[n+](C)cc2)cc1 [methyl viologen]
14C-methyl viologen uptake into proteoliposomes [2]: EmrE transports methyl viologen, but not Gdm^+

N=C(N)Nc1ccccc1 [phenylGdm^+]
SSM electrophysiology, proteoliposomes [3]: methyl-, ethyl-, and phenylGdm^+ evoked increasingly larger currents
